Legend:
TRPV1 ion channel = TRPV1 ion channel (UniProt O35433); assay: patch clamp current recordings from HEK cells stably expressing TRPV1; type: cell-based; settings: for reversibility of current response by washout: FIG. 3
Method: Y axis is current amplitude and X-axis is time indicated by a 2 min bar.

[1] = test system: TRPV1 positive peripheral terminals; settings: local intra-dermal administration, rodents; cited from earlier work
[2] = intraperitoneally in rats, over a period of 9 months; cited from earlier work
TRPV1 receptor = TRPV1 receptor (Homo sapiens, UniProt Q8NER1); settings: cited from earlier work
[3] = test system: TRPV1 expressing nerve terminals; settings: intrathecal administration, STZ-induced diabetes; cited from earlier work

Sequence of TRPV1 receptor (Q8NER1 whole entry): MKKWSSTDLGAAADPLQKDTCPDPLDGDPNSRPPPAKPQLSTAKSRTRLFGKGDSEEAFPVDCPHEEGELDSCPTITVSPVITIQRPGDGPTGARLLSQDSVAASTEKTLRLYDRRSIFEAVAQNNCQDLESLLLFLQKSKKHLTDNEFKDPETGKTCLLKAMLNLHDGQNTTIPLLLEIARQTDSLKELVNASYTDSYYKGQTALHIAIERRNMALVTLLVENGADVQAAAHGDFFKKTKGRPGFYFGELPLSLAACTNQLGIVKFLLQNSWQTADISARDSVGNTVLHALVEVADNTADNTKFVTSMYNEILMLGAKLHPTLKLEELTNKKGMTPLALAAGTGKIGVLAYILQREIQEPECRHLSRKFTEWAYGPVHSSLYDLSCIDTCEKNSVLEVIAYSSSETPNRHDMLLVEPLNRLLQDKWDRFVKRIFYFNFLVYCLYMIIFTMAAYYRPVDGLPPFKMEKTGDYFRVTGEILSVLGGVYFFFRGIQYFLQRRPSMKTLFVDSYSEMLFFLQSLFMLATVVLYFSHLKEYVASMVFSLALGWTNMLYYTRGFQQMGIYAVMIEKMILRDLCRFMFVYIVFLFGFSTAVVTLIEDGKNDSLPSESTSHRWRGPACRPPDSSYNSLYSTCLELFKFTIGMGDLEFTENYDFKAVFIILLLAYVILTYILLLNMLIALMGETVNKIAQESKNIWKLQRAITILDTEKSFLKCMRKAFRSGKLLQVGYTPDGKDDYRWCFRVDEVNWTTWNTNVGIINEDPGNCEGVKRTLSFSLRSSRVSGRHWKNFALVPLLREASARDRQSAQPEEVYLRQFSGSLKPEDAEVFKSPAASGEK

SMILES	current activation (TRPV1 ion channel; 7.9 fM to 15.8 pM, after 100 nM capsaicin, rate of activation concentration dependent)	reversibility of current response by washout (TRPV1 ion channel; RTX 7.9 fM)	concentrations activating TRPV1 ion channels relative to capsaicin (TRPV1 ion channel; RTX at fM to pM concentrations, FIG. 2)	pain sensitivity [1]	dose administered without observable side effects [2] [mg/kg]	concentrations that fully activate TRPV1 receptor (TRPV1 receptor)	effect on thermal hyperalgesia [3]	reversibility of current response by washout (TRPV1 ion channel; capsaicin 100 nM)
C=C(C)[C@]12C[C@@H](C)[C@@]34O[C@](Cc5ccccc5)(O[C@@H]1[C@@H]3C=C(COC(=O)Cc1ccc(O)c(OC)c1)C[C@]1(O)C(=O)C(C)=C[C@@H]41)O2 [RTX, Resiniferatoxin]	activated currents maximally	could not be reversed by washout	five to nine orders of magnitude lower than capsaicin	complete loss of pain sensitivity	≤ 0.2	femtomolar-picomolar range	reversed thermal hyperalgesia	
COc1cc(CNC(=O)CCCC/C=C/C(C)C)ccc1O [capsaicin]								could be reversed by washout
